This is an account of results in ChEMBL document CHEMBL4387741, “Optimization of novel reversible Bruton's tyrosine kinase inhibitors identified using Tethering-fragment-based screens” (Bioorg Med Chem, 2019).

Test [1] has as its target Tyrosine-protein kinase receptor TYRO3 (Homo sapiens) (UniProt Q06418). The test can be described thus: Inhibition of wild-type human partial length TYRO3 (S497 to T814 residues) expressed in bacterial expression system at 1 uM by Kinomescan method relative to control.
For test [2], the target named is Serine/threonine-protein kinase 26 (Homo sapiens) (UniProt Q9P289). The test can be described thus: Inhibition of wild-type human full length MST4 (M1 to P416 residues) expressed in mammalian expression system at 1 uM by Kinomescan method relative to control.
Test [3] has as its system Receptor-type tyrosine-protein kinase FLT3 (Homo sapiens), P36888 [UNDEFINED MUTATION]. The test can be described thus: Inhibition of human partial length FLT3 ITD/F691L double mutant expressed in bacterial expression system at 1 uM by Kinomescan method relative to control.
Test [4] has as its target BMP-2-inducible protein kinase (Homo sapiens) (UniProt Q9NSY1). The test can be described thus: Inhibition of wild-type human partial length BIKE (S34 to N329 residues) expressed in bacterial expression system at 1 uM by Kinomescan method relative to control.
For test [5], the target named is NUAK family SNF1-like kinase 2 (Homo sapiens) (UniProt Q9H093). Briefly: Inhibition of wild-type human partial length SNARK (P22 to A333 residues) expressed in mammalian expression system at 1 uM by Kinomescan method relative to control.
Test [6] deals with Mitogen-activated protein kinase kinase kinase 7 (Homo sapiens) (UniProt O43318). The test can be described thus: Inhibition of wild-type human partial length TAK1 (M1 to Q303 residues) expressed in mammalian expression system at 1 uM by Kinomescan method relative to control.
Test [7] deals with Tyrosine-protein kinase Yes (Homo sapiens) (UniProt P07947). The test can be described thus: Inhibition of wild-type human partial length YES (T257 to L543 residues) expressed in bacterial expression system at 1 uM by Kinomescan method relative to control.
The target of test [8] is Dual specificity mitogen-activated protein kinase kinase 6 (Homo sapiens) (UniProt P52564). Briefly: Inhibition of wild-type human partial length MEK6 (K36 to D334 residues) expressed in bacterial expression system at 1 uM by Kinomescan method relative to control.
Test [9] has as its target G protein-coupled receptor kinase 3 (Homo sapiens) (UniProt P35626). The test can be described thus: Inhibition of wild-type human full length GRK3 (M1 to L688 residues) expressed in mammalian expression system at 1 uM by Kinomescan method relative to control.
For test [10], the system named is Mast/stem cell growth factor receptor Kit (Homo sapiens), P10721 [UNDEFINED MUTATION]. Briefly: Inhibition of human partial length KIT V559D/V654 double mutant (Y545 to D952 residues) expressed in bacterial expression system at 1 uM by Kinomescan method relative to control.
Test [11] concerns the target Tyrosine-protein kinase CSK (Homo sapiens) (UniProt P41240). Briefly: Inhibition of wild-type human full length CSK (M1 to L450 residues) expressed in bacterial expression system at 1 uM by Kinomescan method relative to control.
For test [12], the target named is Tyrosine-protein kinase ABL2 (Homo sapiens) (UniProt P42684). The test can be described thus: Inhibition of wild-type human ABL2 (A248 to G542 residues) expressed in bacterial expression system at 10 uM by Kinomescan method relative to control.
Test [13] has as its target Casein kinase II subunit alpha' (Homo sapiens) (UniProt P19784). Briefly: Inhibition of wild-type human full length CSNK2A2 (M1 to R350 residues) expressed in mammalian expression system at 10 uM by Kinomescan method relative to control.
The test system of test [14] is Tyrosine-protein kinase ABL1 (Homo sapiens), P00519 [F317I]. Briefly: Inhibition of human phosphorylated ABL1 F317I mutant (S229 to K512 residues) expressed in mammalian expression system at 10 uM by Kinomescan method relative to control.
For test [15], the target named is Phosphatidylinositol 4,5-bisphosphate 3-kinase catalytic subunit gamma isoform (Homo sapiens) (UniProt P48736). The test can be described thus: Inhibition of wild-type human partial length PIK3CG (S144 to A1102 residues) expressed in mammalian expression system at 10 uM by Kinomescan method relative to control.
Test [16] addresses Vascular endothelial growth factor receptor 2 (Homo sapiens) (UniProt P35968). The test can be described thus: Inhibition of wild-type human partial length VEGFR2 (R787 to P1253 residues) expressed in mammalian expression system at 10 uM by Kinomescan method relative to control.
Test [17] deals with Serine/threonine-protein kinase PAK 4 (Homo sapiens) (UniProt O96013). Briefly: Inhibition of wild-type human partial length PAK4 (Q144 to R438 residues) expressed in bacterial expression system at 10 uM by Kinomescan method relative to control.
Test [18] addresses Cyclin-dependent kinase 3 (Homo sapiens) (UniProt Q00526). The test can be described thus: Inhibition of wild-type human full length CDK3 (M1 to H305 residues) expressed in bacterial expression system at 10 uM by Kinomescan method relative to control.
Test [19] deals with Serine/threonine-protein kinase BRSK1 (Homo sapiens) (UniProt Q8TDC3). Briefly: Inhibition of wild-type human partial length BRSK1 (M1 to E754 residues) expressed in bacterial expression system at 10 uM by Kinomescan method relative to control.
Test [20] has as its target Serine/threonine-protein kinase 3 (Homo sapiens) (UniProt Q13188). Briefly: Inhibition of wild-type human partial length MST2 (D17 to E318 residues) expressed in bacterial expression system at 10 uM by Kinomescan method relative to control.
For test [21], the target named is Wee1-like protein kinase (Homo sapiens) (UniProt P30291). The test can be described thus: Inhibition of wild-type human partial length WEE1 (M291 to K575 residues) expressed in bacterial expression system at 10 uM by Kinomescan method relative to control.
Test [22] concerns the target Serine/threonine-protein kinase Nek5 (Homo sapiens) (UniProt Q6P3R8). Briefly: Inhibition of wild-type human partial length NEK5 (M1 to M279 residues) expressed in bacterial expression system at 10 uM by Kinomescan method relative to control.
Test [23] has as its target RAF proto-oncogene serine/threonine-protein kinase (Homo sapiens) (UniProt P04049). Briefly: Inhibition of wild-type human partial length RAF1 (I330 to T640 residues) expressed in bacterial expression system at 10 uM by Kinomescan method relative to control.
Test [24] deals with MAP kinase-interacting serine/threonine-protein kinase 2 (Homo sapiens) (UniProt Q9HBH9). The test can be described thus: Inhibition of wild-type human partial length MKNK2 (G63 to S388 residues) expressed in mammalian expression system at 10 uM by Kinomescan method relative to control.
Test [25] deals with Mitogen-activated protein kinase kinase kinase 6 (Homo sapiens) (UniProt O95382). The test can be described thus: Inhibition of wild-type human partial length ASK2 (M278 to R972 residues) expressed in mammalian expression system at 10 uM by Kinomescan method relative to control.
The subject of test [26] is Tyrosine-protein kinase ABL1 (Homo sapiens), P00519 [T315I]. The test can be described thus: Inhibition of human non-phosphorylated ABL1 T315I mutant (S229 to K512 residues) expressed in mammalian expression system at 10 uM by Kinomescan method relative to control.

A word on the inhibition: it is the change of the read-out against control, counted positive when it falls. Consider `O=C(Nc1cccc([C@@H]2CN(c3ncnc4[nH]ccc34)CCN2CCO)c1)Nc1c(F)cccc1N1CCCC1`, for which the inhibition came out at 100% in test [1]; 54% in test [2]; 4.6% in [3]; 39% in [4]; 6.1% in test [5]; 97% in test [6]. In addition, the inhibition was 67% in test [7]; 92% in test [8]; 93% in [9]; 65% in test [10]; 65% in test [11].

With `O=C(Nc1cccc([C@H]2CCCN(c3ncnc4[nH]ccc34)C2)c1)Nc1ccccc1N1CCCC1`, the inhibition in test [12] was determined as 89%; in test [13], 91%; in [14], 94%; in test [15] it was 75%; in test [16], 3.5%; in [17], 54%. Also, the inhibition in [18] was determined as 86%; in test [19], 95%; in [20] it was 54%; in [21], 100%; in [22], 100%; in [23], 86%. Also, the inhibition came out at 34% in test [24], 73% in test [25] and 65% in [26].
